# Results reported in patent publication US20210205638A1, “PARATHYROID HORMONE AND REGENERATION OF DEGENERATIVE DISCS DISEASE” (THE JOHNS HOPKINS UNIVERSITY, priority 2017, published 2021).
# Tests used:
# NP cells = assay: cAMP assay in NP cells (enzyme immunoassay); format: cell-based, mouse; conditions: PTH (1-34) 100 nmol
# Procedure: Green fluorescent protein (GFP) labeled NP cells of notochordal origin were isolated from 15-day old Noto^Cre/+::ROSA26-lacZ^flox/flox male mice as previously described. The NP cells from 15-day old PTH1R^+/+ and PTH1R^−/−, IFT88^+/+ and IFT88^−/− male mice. Briefly, the cells were isolated from the NP region of IVDs in the spinal column from mid thoracic to lower lumbar region and digested initially with TrypLE Express (Gibco) for 30 minutes on shaker, followed by 0.25 mg/ml Collagense-P (Roche) for another […] at 37° C. The digested cells were washed twice with PBS, and cultured in α-MEM (Gibco) supplemented with 10% fetal calf serum (Atlanta Biologicals), and 1% penicillin—streptomycin (Mediatech) to 80-90% confluence at 37° C., 5% CO2 and 5% O2.
# (§1) For cAMP assays, confluent cells were grown in 35-mm six-well plates starved overnight by incubation in serum-free α-MEM at 37° C. The cells were then treated with 100 nM human of human PTH (1-34; Bachem Calif., Inc.) for 1 h. Cellular cAMP was extracted and the concentration measured with the Biotrak enzyme immunoassay system (GE Healthare, Inc., Princeton, HJ). We determined the concentration of total and active TGF-β in the NP tissue using the ELISA Development Kit (R&D Systems) according to the manufacturer's instructions.
# αvβ integrins = assay: Immunostaining of αvβ integrins in IVD sections of aged mice; format: in vivo, mouse; conditions: 18-month old mice; only αvβ6 among αvβ3, αvβ5, αvβ6, β8
# Procedure: For immunocytochemical staining, we incubated GFP labeled NP cells co-stained with primary antibody to rabbit PTH1R PRB-635P (Covance, 1:100) for 1 h and subsequently stained with secondary antibodies conjugated with fluorescence at room temperature. At the time of euthanasia, we dissected and fixed the lumbar vertebral spine in 10% buffered formalin for 48 h, decalcified them in 10% EDTA (pH 7.4) for 14-21 days and embedded them in paraffin or optimal cutting temperature (OCT) compound (Sakura Finetek). Fourmicrometer-thick coronal-oriented sections of the L1-L6 spine were processed for safranin O and fast green staining. Sections for immunostaining was performed using a standard protocol and incubated with primary antibodies to rabbit ACAN (Abcam, 1:100), CCN2 (Abcam, 1:100), integrin β8 (Abcam, 1:200), pCREB (Abcam, 1:100) and PTH1R PRB-635P (Covance, 1:100), mouse pSmad2/3 (Santa Cruz, 1:100), integrin αvβ6 (Millipore, 1:100), integrin αvβ3 (Bioss, 1:100,), integrin αvβ5 (Bioss, 1:100) at 4° C. overnight. For immunohistochemical staining, a horse radish peroxidase-streptavidin detection system (Dako) was subsequently used to detect the immunoactivity, followed by counterstaining with hematoxylin (Sigma-Aldrich). For immunofluorescent assay, the slides were incubated with secondary antibodies conjugated with fluorescence at room temperature for 1 h while avoiding light. […]
# 18-month-old mice = assay: iPTH in aged mice: PPCT of IVD and L4 trabecular bone; format: in vivo, mouse; conditions: for IVD morphology: aged mice
# Procedure: For the dosage screening experiments, 17 month old male C57BL/6J WT mice were assigned into four groups treated with different doses of PTH or vehicle; 20 μg/kg/d, 40 μg/kg/d and 80 μg/kg/d of human PTH (1-34) (Bachem Calif., Inc. King of Prussia, Pa., USA.) or vehicle groups. We chose the optimal dosage of PTH (1-34) for the rest of the experiment.
# Propagation phase contrast micro-tomography (PPCT) based on the Synchrotron radiation scanning was performed at the BL13W1 biomedical beamline in the Shanghai Synchrotron Radiation Facility (SSRF) in China (FIG. 7A). To obtain high X-ray attenuation contrast images, the monochromatic X-ray energy was adjusted to 15 keV, the scanner was set at a voltage of 15 keV, exposure time set to 2.5 s, and the sample-to-detector distance (SDD) adjusted to 30 cm and a resolution of 3.7 μm per pixel. The images were reconstructed and analyzed using the GPU-CT-Reconstruction software (applied by the BL13W1 experimental station) and the VG Studio Max 3D software (version 2.1, Volume Graphics GmbH, Germany) respectively. The region of interest was defined to cover the whole L3-L4 compartment. The 3D quantitative analysis of IVDs was performed with the commercially available Image Pro Analyzer 3D software (Version 7.0, Media Cybernetics, Inc., USA). The 3D structural parameters analyzed for the mean height and volume and thickness distribution of IVDs. The trabecular bone of L4 was segmented from the bone marrow and analyzed to determine the trabecular bone volume fraction (BV/TV), trabecular thickness (Tb. Th), trabecular number (Tb. N) and trabecular separation (Tb. Sp).
# β6 integrin promoter = assay: Chromatin immunoprecipitation of pCREB on β6 integrin promoter in NP cells; format: cell-based, mouse; conditions: ChIP, most distal CREB site (Primer 1)
# Procedure: The ChIP assays were carried out using the Thermo Fisher ChIP Kit (catalog number: 26156). The crude homogenate from the NP cells was crosslinked with 1% formaldehyde at room temperature for 10 min. The reaction was stopped by adding glycine (0.25 M). After centrifugation, the pellet was collected and lysed in SDS lysis buffer containing protease inhibitor cocktail. The lysis was sonicated until the DNA was broken into fragments with a mean length of 200-1,000 bp. The samples were first pre-cleaned with protein G agarose and then subjected to immunoprecipitation overnight with […] of rabbit antibodies against pCREB (CST, 1:50) With […] of normal rabbit serum overnight at 4° C. The 10-20% of the sample for immunoprecipitation was used as an input (a positive control).
# TGF-β = assay: ELISA of total and active TGF-β in NP tissue of aged mice; format: in vivo, mouse; conditions: 18-month-old mice
# Procedure: as §1
# [1] = 18-month-old mice relative to vehicle, 40 μg/kg
# [2] = 18-month-old mice, L4 trabecular bone
smiles,measurement,setting,value
"CC[C@H](C)[C@H](NC(=O)[C@H](CCC(=O)O)NC(=O)[C@H](CO)NC(=O)[C@@H](NC(=O)[C@@H](N)CO)C(C)C)C(=O)N[C@@H](CCC(N)=O)C(=O)N[C@@H](CC(C)C)C(=O)N[C@@H](CCSC)C(=O)N[C@@H](Cc1cnc[nH]1)C(=O)N[C@@H](CC(N)=O)C(=O)N[C@@H](CC(C)C)C(=O)NCC(=O)N[C@@H](CCCCN)C(=O)N[C@@H](Cc1cnc[nH]1)C(=O)N[C@@H](CC(C)C)C(=O)N[C@@H](CC(N)=O)C(=O)N[C@@H](CO)C(=O)N[C@@H](CCSC)C(=O)N[C@@H](CCC(=O)O)C(=O)N[C@@H](CCCN=C(N)N)C(=O)N[C@H](C(=O)N[C@@H](CCC(=O)O)C(=O)N[C@@H](Cc1c[nH]c2ccccc12)C(=O)N[C@@H](CC(C)C)C(=O)N[C@@H](CCCN=C(N)N)C(=O)N[C@@H](CCCCN)C(=O)N[C@@H](CCCCN)C(=O)N[C@@H](CC(C)C)C(=O)N[C@@H](CCC(N)=O)C(=O)N[C@@H](CC(=O)O)C(=O)N[C@H](C(=O)N[C@@H](Cc1cnc[nH]1)C(=O)N[C@@H](CC(N)=O)C(=O)N[C@@H](Cc1ccccc1)C(=O)O)C(C)C)C(C)C [PTH (1-34), teriparatide]",time at which cAMP level in NP cells peaked,NP cells,30 min
same,level of αvβ6 integrin,αvβ integrins,significantly increased
same,IVD height,18-month-old mice; [1],increased
same,IVD volume,18-month-old mice; [1],increased
same,bone volume (BV/TV),18-month-old mice; [2],increase
same,connectivity (Tb. Con),18-month-old mice; [2],increase
same,IVD thickness in 3D images in five different areas,"18-month-old mice; 18-month-old mice, especially the central area of IVD",significant increase
same,IVD morphology,18-month-old mice; 40 μg/kg daily for eight weeks,significantly improved
same,IVD morphology,18-month-old mice; 80 μg/kg daily for eight weeks,significantly improved
same,binding of pCREB to the β6 integrin promoter,β6 integrin promoter,inducing direct binding of pCREB
same,level of active TGF-β in IVDs,TGF-β,increased
same,total TGF-β level,TGF-β,not changed
